Where a name gives a salt, the structure may show the parent alone.
Assays:
human CB1 receptor = target: T1, human CB1 receptor (Homo sapiens, UniProt P21554); test: In-vitro efficacy and potency at the human CB1 receptor expressed in CHO cells (luciferase reporter gene assay); type: cell-based; settings: CHO cells expressing human CB1 receptor and luciferase reporter gene; 5 h incubation at 37° C.
T1 construct: expressed in transfected cells; host or cells: Chinese Hamster Ovary (CHO) cells
Method: In-vitro Determination of Efficacy and Potency at the Human CB1 Receptor Expressed in CHO Cells
Chinese Hamster Ovary (CHO) cells expressing the human CB1 receptor and a luciferase reporter gene were suspended in phenol red/serum free DMEM/F-12 nut mix containing penicillin/streptomycin (50 U/50 μg/ml) and fungizone (1 μg/ml) and seeded into 96 well plates at a density of 3×10^4 cells per well (100 μl final volume). Cells were incubated overnight (approx. 18 h at 37° C., 5% CO2/95% air) prior to assay. […] The stock solutions (10 μl) were added directly to the relevant wells. The plates were incubated at 37° C. for 5 h to allow agonist-induced expression of the luciferase enzyme. Under subdued light, LucLite substrate (Packard; reconstituted as per manufacturer's instructions; 100 μl) was added to each well. Plates were covered with Top Seal and then incubated at room temperature for 5 minutes before counting on the Packard TopCount (single photon counting, 0.01 minute count time, 5 minute count delay).

Mice = test: Tail flick latency in mice; type: in vivo; settings: Mus musculus, iv, administered intravenously, ED50 calculated at Tmax, significantly increased the tail flick latency, read-out: ED50 (increase of tail flick latency)
Method: Tail Flick Latency in Mice
Mice were trained to sit still in a tail flick apparatus (Ugo Basile, Italy) whilst tail flick latency was measured. The tail was exposed to a focused beam of radiant heat at a point approximately 2.5 cm from the tip. Tail flick latency was defined as the interval between the appliance of the thermal stimulus and withdrawal of the tail. A 12 second cut-off was employed to prevent tissue damage. Four groups of eight mice were treated with vehicle or one of three doses of the test compound, administered intravenously (vehicle: 10% Tween-80 in saline; injection volume 10 ml/kg). Tail flick latency was measured before administration of the test compound and at regular intervals (typically 20, 40 and 60 minutes) after compound administration. The ED50 was calculated at Tmax.

T1 sequence (P21554 whole entry): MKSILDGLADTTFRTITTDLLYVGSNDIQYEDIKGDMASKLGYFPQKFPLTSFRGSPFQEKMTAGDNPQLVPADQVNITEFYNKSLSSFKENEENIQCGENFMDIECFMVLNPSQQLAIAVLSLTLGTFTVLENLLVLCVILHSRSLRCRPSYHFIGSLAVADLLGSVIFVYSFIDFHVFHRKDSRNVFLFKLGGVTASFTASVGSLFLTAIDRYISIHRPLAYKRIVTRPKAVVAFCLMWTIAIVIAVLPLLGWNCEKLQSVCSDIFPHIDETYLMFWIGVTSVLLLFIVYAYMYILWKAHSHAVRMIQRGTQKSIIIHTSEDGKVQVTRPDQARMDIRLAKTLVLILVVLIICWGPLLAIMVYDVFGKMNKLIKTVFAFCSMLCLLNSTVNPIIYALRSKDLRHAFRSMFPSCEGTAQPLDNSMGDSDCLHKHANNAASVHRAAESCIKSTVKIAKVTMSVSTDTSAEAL

| Compound | EC50 (human CB1 receptor) | ED50 (Mice) |
| --- | --- | --- |
| COc1cccc2c(-c3noc([C@H]4CCCN4C)n3)cn(CC3CCCCC3)c12 [Example 2G, (R)-1-(Cyclohexyl)methyl-7-methoxy-3-[5-(1-methylpyrrolidin-2-yl)-[1,2,4]oxadiazol-3-yl]-1H-indole, hydrochloride salt] | 31.6 nM | < 5 µmol/kg |
| CCN(CC)Cc1nc(-c2cn3c4c(cccc24)OC[C@H]3C2CCCCC2)ns1 [Example 13, (R)-3-Cyclohexyl-6-{5-[(diethylamino)methyl]-[1,2,4]-thiadiazol-3-yl}-2,3-dihydropyrrolo[1,2,3-de]-1,4-benzoxazine, hydrochloride salt] | 7.94 nM | < 5 µmol/kg |
| Fc1cccc2c(-c3nsc(CN4CCCC4)n3)cn(CC3CCOCC3)c12 [Example 14B, 7-fluoro-3-{5-[(pyrrolidin-1-yl)methyl]-[1,2,4]-thiadiazol-3-yl}1-(tetrahydropyran-4-yl)methyl-1H-indole, hydrochloride salt] | 50.1 nM | < 5 µmol/kg |
| CCN(CCOC)Cc1nc(-c2cn(CC3CCOCC3)c3c(Cl)cccc23)ns1 [Example 15A, 7-chloro-3-(5-{[N-ethyl-N-(2-methoxyethyl)amino]methyl}-[1,2,4]-thiadiazol-3-yl)-1-(tetrahydropyran-4-yl)methyl-1H-indole, hydrochloride salt] | 10 nM | < 5 µmol/kg |
| Clc1cccc2c(-c3nsc(CN4CCCC4)n3)cn(CC3CCOCC3)c12 [Example 15B, 7-chloro-3-{5-[(Pyrrolidin-1-yl)methyl]-[1,2,4]-thiadiazol-3-yl}1-(tetrahydropyran-4-yl)methyl-1H-indole, hydrochloride salt] | 20 nM | < 5 µmol/kg |
| CCN(CCO)Cc1nc(-c2cn(CC3CCOCC3)c3c(Cl)cccc23)ns1 [Example 15C, 7-chloro-3-(5-{[N-ethyl-N-(2-hydroxyethyl)amino]methyl}-[1,2,4]-thiadiazol-3-yl)-1-(tetrahydropyran-4-yl)methyl-1H-indole] | 10 nM | < 5 µmol/kg |
| COCCN(Cc1csc(-c2cn(CC3CCCCC3)c3c(Cl)cccc23)n1)C(C)C [Example 20, 7-Chloro-1-(cyclohexyl)methyl-3-(4-{[N-isopropyl-N-(2-methoxyethyl)amino]methyl}-[1,3]-thiazol-2-yl)-1H-indole, hydrochloride salt] | 5.01 nM | < 5 µmol/kg |
| CC(C)N(CCO)Cc1csc(-c2cn(CC3CCOCC3)c3c(Cl)cccc23)n1 [Example 23B, 7-Chloro-3-(4-{[N-(2-hydroxyethyl)-N-isopropylamino]methyl}-1,3-thiazol-2-yl)-1-(tetrahydropyran-4-yl)methyl-1H-indole] | – | < 5 µmol/kg |
| CCN(CCO)Cc1csc(-c2cn(CC3CCOCC3)c3c(Cl)cccc23)n1 [Example 23C, 7-Chloro-3-(4-{[N-ethyl-N-(2-hydroxyethyl)amino]methyl}-[1,3]-thiazol-2-yl)-1-(tetrahydropyran-4-yl)methyl-1H-indole] | – | < 5 µmol/kg |
| CCN(CC)Cc1ncc(-c2cn(CC3CCCCC3)c3c(OC)cccc23)o1 [Example 32, 1-(Cyclohexyl)methyl-3-{2-[(diethylamino)methyl]-[1,3]-oxazol-5-yl}-7-methoxy-1H-indole, hydrochloride salt] | 50.1 nM | – |
| CCN1Cc2snc(-c3cn(CC4CCCCC4)c4c(OC)cccc34)c2C1 [Example 33, 1-(Cyclohexyl)methyl-3-(5-ethyl-5,6-dihydro-4H-pyrrolo[3,4-d]isothiazol-3-yl)-7-methoxy-1H-indole, hydrochloride salt] | 79.4 nM | – |
| COc1cccc2c(-c3nnc(CN4CCCC4)s3)cn(CC3CCCCC3)c12 [Example 38, 1-(Cyclohexyl)methyl-7-methoxy-3-{5-[(pyrrolidin-1-yl)methyl]-[1,3,4]-thiadiazol-2-yl}-1H-indole, hydrochloride salt] | 79.4 nM | – |
| CC1(C)CCCN1Cc1nc(-c2cn(CC3CCOCC3)c3c(Cl)cccc23)no1 [Example 39, 7-Chloro-3-{5-[(2,2-dimethyl-pyrolidin-1-yl)methyl]-[1,2,4]oxadiazol-3-yl}-1-(tetrahydropyran-4-yl)methyl-1H-indole, hydrochloride salt] | 31.6 nM | < 5 µmol/kg |

Source: US7700634B2, “(Indol-3-yl) heterocycle derivatives as agonists of the cannabinoid CB1 receptor” (N.V. Organon, priority 2004, dated 2010)
